Test results reported in patent US7799969B2, “Methods for cloning rats by nuclear transfer” (Institut National de la Recherche Agronomique, priority 2003, dated 2010).
Where a SMILES comes first, the peptide text is derived from it. The star is where a group is joined. Cbz = O=C(OCc1ccccc1)*

Experiments:
rat ovocytes [1] = assay: Inhibition of spontaneous activation of rat ovocytes by exposure to a proteasome inhibitor; assay type: cell-based; conditions: repeats n = 2
Excerpt: The method according to the invention presents the advantage of strictly and reversibly controlling the ovocyte activation process by acting upstream of the biochemical processes that control activation and by preventing the degradation of the macromolecular compounds responsible for arrest of the ovocyte in metaphase and in particular of the cyclins. In order to do this, the ovocyte is exposed in vitro to one or more inhibitor(s) of proteasome, a key organelle of the cell: inhibition of its proteolytic action on the cyclins makes it possible to maintain an elevated level of MPF kinasic activity which determines metaphase arrest. The majority of ovocytes may thus be maintained in metaphase of the second meiotic division for several hours after their harvest (table 1).
Solutions: • Medium M2 (Hogan & al, 1994 In: Manipulating the Mouse Embryo) • Medium RECMB2*-MG132 (MG132=1.25 μM) • Medium M2-Hyaluronidase-MG132 (MG132=1.25 μM; Hyaluronidase=2.5 mg/ml) • Medium M2-MG132 (MG132=5.00 μM) • *RECMB2=medium mRlECM-BSA (Oh & al. (1998) Biol. Reprod.), with BSA=4 mg/ml and NaCl=100-130 mM.
10. The “decoronised” ovocytes are transferred to a drop of culture medium RECMB2-MG132.

[2] = system: rat embryos reconstructed from ovocytes; assay: Rate of foetal development of rat embryos reconstructed from ovocytes previously exposed to a proteasome inhibitor; assay type: in vivo
Excerpt: By the method according to the invention, the ovocytes are transferred to a medium not containing inhibitor(s) right before conducting the reconstruction of the embryos. This makes it possible to avoid direct exposure of the nucleus donor cells to their action. Reconstruction of the embryos must then be carried out very rapidly before proteasome becomes functional again in order to avoid a premature activation of the ovocyte. The purpose of this rapid reconstruction is to […] the period during which the condensed chromatin of the nucleus is directly exposed to the ovocyte factors which make possible the reprogramming of the activity of the foreign nucleus. It then becomes possible to reconstitute a greater number of embryos during a given time period, and therefore to increase the number of transplanted embryos per recipient female for in vivo development. This possibility makes it possible to get around the low rate of implantation observed in the rat after transfer of a nucleus (table 4).
These foetuses may give rise to viable baby rats (table 4).
Set up the retention and enucleation-injection pipettes on their respective pipette holders. • 5. Position the pipettes so that their ends are horizontal, i.e., parallel to the coverglass of the micromanipulation chamber, and facing each other. • 6. Transfer the ovocytes and the cells to the micro-injection chamber by means of a pipette for manipulation of the ovocytes. • 7. Maintain an ovocyte on the maintenance pipette in order that the deformation of the plasma membrane under which the ovocyte metaphase is situated, is situated between 2 and 3 hr or between 3 and 4 hr. • 8. Apply the enucleation-injection pipette to the pellucid area at 3 hr. Verify that the pipette is in exactly the same plane as the pellucid area. Gently aspirate the pellucid area and activate the piezo system (setting 1) to puncture it. When the system is perfectly adjusted the pellucid area is punctured in a few seconds according to a perfect punch. • 9. Next, aspirate a cell whose morphology corresponds to the sought-for criteria into the enucleation-injection pipette and break its plasma membrane by several to-and-fro's in the pipette or by means of the piezo-Drill (a few impulsions are sufficient at setting 2). Maintain the cell close to the end of the micropipette. • 10. Penetrate into the perivitelline space of the ovocyte through the previously punctured orifice, apply the pipette against the plasma membrane and push the donor cell back to the end of the pipette and then push the pipette in up to the opposite end of the ovocyte without, however, reaching the plasma membrane opposite. • 11. Break the plasma membrane by means of one or more impulsions (1 to 3) of the Piezo-Drill (setting 2). • 12. Inject the cell into the cytoplasm of the ovocyte with the minimum possible medium. • 13. Gently withdraw the enucleation-injection pipette and re-close the ovocyte by aspirating the 2 ends of the broken plasma membrane and the ovocyte metaphase (enucleation). • 14. Transfer the reconstructed embryos into a micro-drop (50 μl) of RECMB2. • 15. Ovocyte activation is triggered or prolonged by transfer of the ovocytes to a micro-drop (20 μl) of RECMB2-BLI for a duration of activation generally between 1 and 2 hr. • 16. The ovocytes are then rinsed in 4-5 drops (50 μl) of RECMB2 to be cultured in the same medium while waiting to be transferred into a pseudogestating female or to prolong in vitro culture.

rat ovocytes [3] = assay: Reversibility of the inhibition of spontaneous activation of rat ovocytes (parthenogenetic development after removal of MG132 and activation by butyrolactone); assay type: cell-based; conditions: repeats n = 5
[4] = reconstructed embryos transferred to recipient females

CC(C)C[C@@H](C=O)NC(=O)[C@H](CC(C)C)NC(=O)[C@H](CC(C)C)NC(=O)OCc1ccccc1 [MG132, peptide aldehyde Cbz-LLL-H] (Cbz-Leu-Leu-Leu-aldehyde)
% of activated ovocytes after collection (rat ovocytes [1]; t = 0): 0% (0/68)
% of activated ovocytes after collection (rat ovocytes [1]; t = 210 m after collection): 33.8% (23/68)
No. of foetuses (%) total ([2]; % in brackets): 55.9%
No. of foetuses (%) viable ([2]; % in brackets): 47.0%
pregnant recipients between D12-22 ([2]; number of recipient females): 11
living at D12-D14 ([2]; of the viable foetuses): 11
living rats at term ([2]; of the viable foetuses): 5
No. of foetuses total ([2]; rat, in vivo): 19
No. of foetuses viable ([2]; rat, in vivo): 16
implantation (%) [2, 4]: 5.4%
implantation (number) [2, 4]: 34
% of embryos (parthenogenetic development at the morula stage) (rat ovocytes [3]; t = 0 removal of MG132, exposure to MG132 for 120 min, activation by butyrolactone): 0% (0/71)
% of embryos (parthenogenetic development at the morula stage) (rat ovocytes [3]; t = 120 min, after removal of MG132 and induction of activation by butyrolactone): 45.9% (34/74)
